Measured values taken from the supplement of paper PMC10307832.

Columns and labels:
Assay in all cases: relative viability (nuclei count vs DMSO), 5 days (fraction); higher = more cells survive
AZD6482 + Bortezomib = compound: Cc1cc([C@@H](C)Nc2ccccc2C(=O)O)c2nc(N3CCOCC3)cc(=O)n2c1 [AZD6482] + CC(C)C[C@H](NC(=O)[C@H](Cc1ccccc1)NC(=O)c1cnccn1)B(O)O [Bortezomib] (partner 0.002 µM)
Procedure, shortened: (§1)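 Lung cancer cell lines were seeded in 1536-well plates and dosed by pin tool the next day, with either a single drug or a fixed anchor-drug dose combined with five library-drug doses (not always all listed) spaced in √10 steps. Five days later, one step fixed the cells and stained their nuclei (final 0.05% Triton X-100, 1% formaldehyde, 1 ug/ml Hoechst), and nuclei were counted on 4× images. Relative viability is the nuclei count in treated wells divided by the count in vehicle wells, and each value is the median of duplicate plates.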

[1] = compound: COc1cc2nc(N3CCCN(C)CC3)nc(NC3CCN(Cc4ccccc4)CC3)c2cc1OC + C[C@@H](Oc1cc(-c2cnn(C3CCNCC3)c2)cnc1N)c1c(Cl)ccc(F)c1Cl [Crizotinib] (partner 1 µM)
Procedure, shortened: as §1

AZD6482 + Vorinostat = compound: Cc1cc([C@@H](C)Nc2ccccc2C(=O)O)c2nc(N3CCOCC3)cc(=O)n2c1 [AZD6482] + O=C(CCCCCCC(=O)Nc1ccccc1)NO [Vorinostat] (partner 1 µM)
Procedure, shortened: as §1

[2] = compound: COc1cc2nc(N3CCCN(C)CC3)nc(NC3CCN(Cc4ccccc4)CC3)c2cc1OC + CC(=O)c1c(C)c2cnc(Nc3ccc(N4CCNCC4)cn3)nc2n(C2CCCC2)c1=O [Palbociclib] (partner 0.5 µM)
Procedure, shortened: as §1

| Cell Line | relative viability (AZD6482 + Bortezomib; first compound 0.08 µM) | relative viability (AZD6482 + Bortezomib; first compound 0.253 µM) | relative viability (AZD6482 + Bortezomib; first compound 0.8 µM) | relative viability (AZD6482 + Bortezomib; first compound 2.53 µM) | relative viability (AZD6482 + Bortezomib; first compound 8 µM) | relative viability ([1]; first compound 0.2 µM) | relative viability ([1]; first compound 0.6325 µM) | relative viability ([1]; first compound 2 µM) | relative viability ([1]; first compound 6.325 µM) | relative viability (AZD6482 + Vorinostat; first compound 0.08 µM) | relative viability (AZD6482 + Vorinostat; first compound 0.253 µM) | relative viability (AZD6482 + Vorinostat; first compound 0.8 µM) | relative viability (AZD6482 + Vorinostat; first compound 2.53 µM) | relative viability (AZD6482 + Vorinostat; first compound 8 µM) | relative viability ([2]; first compound 0.2 µM) | relative viability ([2]; first compound 0.6325 µM) | relative viability ([2]; first compound 2 µM) | relative viability ([2]; first compound 6.325 µM) |
| --- | --- | --- | --- | --- | --- | --- | --- | --- | --- | --- | --- | --- | --- | --- | --- | --- | --- | --- |
| EBC-1 | 0.498 | 0.532 | 0.463 | 0.358 | 0.381 | 0.241 | 0.181 | 0.147 | 0.177 |  |  |  |  |  |  |  |  |  |
| EKVX | 0.815 | 0.965 | 0.863 | 0.789 | 0.689 | 1.08 | 0.887 | 1.05 | 0.9 | 0.537 | 0.662 | 0.578 | 0.485 | 0.361 | 0.407 | 0.412 | 0.395 | 0.301 |
| EMC-BAC-2 | 1.02 | 1.07 | 1.12 | 0.838 | 0.948 | 0.729 | 0.747 | 0.843 | 0.824 | 0.534 | 0.413 | 0.526 | 0.341 | 0.316 | 0.525 | 0.472 | 0.517 | 0.546 |
| EPLC-272H | 0.706 |  | 0.973 | 0.904 | 0.834 | 0.811 | 0.915 | 1.05 | 0.785 | 0.466 | 0.397 | 0.474 | 0.256 | 0.252 | 0.326 | 0.322 | 0.316 | 0.346 |
| H3255 | 0.738 | 0.896 | 0.874 | 0.382 | 0.559 | 0.781 | 0.894 | 1.03 | 0.856 | 0.741 | 0.871 | 0.764 | 0.697 | 0.689 | 0.312 | 0.316 | 0.327 | 0.3 |
| HARA | 0.977 | 1.08 | 1.37 |  | 1.13 | 1.01 | 1.02 | 1.18 | 1.13 | 0.557 | 0.574 | 0.465 | 0.357 | 0.437 | 0.21 | 0.312 | 0.252 | 0.278 |
| HCC-15 | 0.926 | 0.99 | 1.08 | 0.904 | 1.04 | 0.817 | 0.82 | 0.823 | 0.711 | 0.778 | 0.806 | 0.858 | 0.685 | 0.739 | 0.741 | 0.802 | 0.83 | 0.69 |
| HCC-44 | 0.799 | 1.01 | 0.975 | 1.04 | 0.88 | 0.839 | 0.721 | 0.813 | 0.819 | 1.08 | 1.17 | 1.28 | 1.29 | 1.21 | 0.956 | 0.951 | 0.995 | 0.956 |
| HCC-78 | 0.42 | 0.394 | 0.337 | 0.203 | 0.225 | 0.333 | 0.377 | 0.332 | 0.352 | 0.499 | 0.389 | 0.395 | 0.298 | 0.341 | 0.491 | 0.448 | 0.508 | 0.463 |
